Values quoted from earlier work in US20070293700A1, “Process for the Preparation of Gabapentin” (Zambon Group S.P.A., priority 2004, published 2007).
Read-outs that look alike come from different tables or passages of the source.

Assays:
[1] = pH at which the isoelectric point is reached

NCC1(CC(=O)O)CCCCC1 [gabapentin, 1-(aminomethyl)-cyclohexaneacetic acid]
solubility in water (0° C.): about 8.5% | solubility in water (temperature of 20° C.): ~11% | isoelectric point (pH) [1]: 7.14
